# Measured values taken from patent US12233045B2, “Therapeutic agent for treating bradyarrhythmia” (OSAKA UNIVERSITY, priority 2018, dated 2025).
# Substitutions are numbered along the chain they refer to.
# Key:
# [1] = target: T1, KCNJ5 WT/W101C KACh channel (Homo sapiens, UniProt P48544+P48549, W101C); assay: two-electrode voltage clamp, W101C heterozygous mutant KACh channel in Xenopus laevis oocytes; type: cell-based; conditions: 0.01, 0.1 and 1 μM
# T1 construct: expressed in transfected cells; host or cells: Xenopus laevis oocytes (cRNA injection)
# T1 sequence (P48544 1-419 W101C): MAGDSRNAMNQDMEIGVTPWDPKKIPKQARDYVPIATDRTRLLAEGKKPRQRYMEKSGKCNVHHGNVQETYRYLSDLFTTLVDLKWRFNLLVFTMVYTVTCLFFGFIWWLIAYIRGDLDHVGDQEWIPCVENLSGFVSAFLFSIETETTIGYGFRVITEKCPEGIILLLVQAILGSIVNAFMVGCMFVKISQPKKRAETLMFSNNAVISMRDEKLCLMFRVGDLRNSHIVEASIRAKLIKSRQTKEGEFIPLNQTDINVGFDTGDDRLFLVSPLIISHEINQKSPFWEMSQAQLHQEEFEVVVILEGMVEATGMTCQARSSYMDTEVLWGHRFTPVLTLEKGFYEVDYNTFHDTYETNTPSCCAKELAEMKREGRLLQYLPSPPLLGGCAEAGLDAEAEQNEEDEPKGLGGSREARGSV
# T1 sequence (P48544 1-419): T1 sequence (P48544 1-419 W101C) with C101W
# T1 sequence (P48549 1-501): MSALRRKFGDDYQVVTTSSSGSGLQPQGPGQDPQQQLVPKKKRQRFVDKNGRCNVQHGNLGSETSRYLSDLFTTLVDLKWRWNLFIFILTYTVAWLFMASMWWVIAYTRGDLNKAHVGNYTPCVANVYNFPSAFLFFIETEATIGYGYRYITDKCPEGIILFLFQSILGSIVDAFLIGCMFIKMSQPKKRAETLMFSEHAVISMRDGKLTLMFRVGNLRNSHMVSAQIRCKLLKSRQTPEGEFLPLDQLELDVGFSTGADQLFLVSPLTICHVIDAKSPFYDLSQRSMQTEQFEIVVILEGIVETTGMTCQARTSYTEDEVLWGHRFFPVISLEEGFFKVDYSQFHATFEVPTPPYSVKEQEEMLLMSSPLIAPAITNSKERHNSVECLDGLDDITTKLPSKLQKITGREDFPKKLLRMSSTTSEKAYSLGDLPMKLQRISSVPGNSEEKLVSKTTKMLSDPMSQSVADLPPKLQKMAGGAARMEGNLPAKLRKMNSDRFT
# Method: In Xenopus laevis oocytes, in order to imitate autosomal dominant inheritance heterozygous, equimolar amounts of cRNAs of wild type KCNJ5 (KCNJ5 WT) and KCNJ5 W101C were injected together with cRNA of wild type KCNJ3 (KCNJ3 WT), the W101C heterozygous mutant KACh channel was expressed, electrodes were inserted, and the channel activity was confirmed by a two-electrode voltage clamp method.
# The above human KCNJ5 cDNA clone (commercially available from Invitrogen) was amplified by PCR and subcloned it into a pCS2+ vector (commercially available from Addgene) to prepare a template, and the c.303G>C mutation providing KCNJ5 W101C was introduced by site-directed mutagenesis through PCR. […]
# The whole cell current via the expressed KACh channel was measured by a two-electrode voltage clamp method using a GeneClamp 500 amplifier (commercially available from Molecular Devices). […] The perfusate containing the compound (I) with a low concentration was added when the current amplitude was almost steady, and the current amplitude was then recorded while replacing it with a perfusate with a high concentration in the same manner. When the recording was ended, Ba^2+ (3 mM) was added, and the intrinsic leak current was measured.
# [2] = tested on: KCNJ3 N83H mutant zebrafish; assay: transgenic zebrafish model, heart rate and pulsation rhythm analysis (KCNJ3 N83H); type: in vivo, zebrafish (Danio rerio); conditions: for effect on heart rate and bradyarrhythmia: 100 nM in 0.03% sea salt aqueous solution, after 1 hour, 2 day old fry; for effect on sinus arrest / atrioventricular block caused by the N83H mutation: 100 nM, 1 hour after application
# Method: (§1) As a comparative example, zebrafish for KCNJ3 WT expression was also prepared in the same manner.
# Transgenic zebrafish was prepared by a transposon transfer system using transposon Tol2. Since the cardiac KACh channel was expressed in the sinoatrial node, atrioventricular node, and atrial muscle, a gene construct in which three genes of mCherry were linked with a 2A peptide was prepared so that human KCNJ3 WT or N83H and human KCNJ5, and additionally gene introduction thereof were able to be determined under a fluorescence microscope under the control of the atrial myosin heavy chain (amhc) promoter, which expressed a target gene in zebrafish in an atrial-specific manner (FIG. 3). Next, a small amount of mRNA of the transposase encoded by Tol2 gene and this construct were simultaneously injected into the fertilized egg. When the adult fish prepared in this manner were crossed with wild type zebrafish, fish whose germline transmission was confirmed by generating fry positive for mCherry in the atrium under a fluorescence microscope were used as an F0 founder. When this F0 founder was crossed with wild type zebrafish hspGFF3A, which expressed GFP in both the ventricle and the atrium (Proceedings of the National Academy of Sciences of the United States of America. 2008; 105:1255-1260.), the heart rate and the heart pulsation rhythm were analyzed using 2 day old F1 transgenic zebrafish fry which expressed GFP in the ventricle and GFP and mCherry in the atrium (FIG. 4). Specifically, zebrafish fry was fixed on a glass bottom dish with a diameter of 35 mm with a 0.5% low-melting-point agarose gel, and the fry heart in a 0.03% sea salt aqueous solution was observed under a fluorescence microscope. Based on the video of the heart beat acquired by the camera attached to the fluorescence microscope, detailed analysis of the heart rate and pulsation rhythm was performed using original M mode analysis software (The Journal of clinical investigation. 2007, 117:2812-2824.). The heart rate was measured by the pulsation of the sinus venosus part including the sinus node. Since the expression level of mCherry in the atrium was not different between KCNJ3 WT zebrafish and KCNJ3 N83H mutant zebrafish, the expression level of the KACh channel gene was considered to be the same in both cases. In the KCNJ3 N83H mutant zebrafish, significant atrial enlargement and a bradyarrhythmia phenotype similar to human cases (sinus arrest, sinus bradycardia, sinoatrial block, atrioventricular block) were observed (FIG. 5). Next, the 0.03% sea salt aqueous solution was replaced with a 0.03% sea salt aqueous solution containing the 100 nM compound (II), and the heart beat after 1 hour was analyzed in the same manner.
# [3] = target: T2, KCNJ3 WT KACh channel (Homo sapiens, UniProt P48544+P48549); assay: two-electrode voltage clamp, KACh channel expressed in Xenopus laevis oocytes (wild type); type: cell-based
# T2 construct: expressed in transfected cells; host or cells: Xenopus laevis oocytes (cRNA injection)
# T2 sequence (P48549 1-501): T1 sequence (P48549 1-501)
# T2 sequence (P48544 1-419): T1 sequence (P48544 1-419 W101C) with C101W
# Description: (§2) By co-expressing with […] subunits of G protein, a whole cell current was able to be directly measured via the activated KACh channel.
# The coding sequence of human KCNJ3 WT was obtained by amplifying a human KCNJ3 cDNA clone (commercially available from Invitrogen) by PCR, and subcloning it into a pCS2+ vector (commercially available from Addgene). The c.247A>C mutation providingKCNJ3 N83H was introduced by site-directed mutagenesis through PCR. Similarly, the human KCNJ5 coding sequence was obtained by amplifying a human KCNJ5 cDNA clone (commercially available from Invitrogen) by PCR and subcloning it into a pCS2+ vector. […]
# The whole cell current via the expressed KACh channel was measured by a two-electrode voltage clamp method using a GeneClamp 500 amplifier (commercially available from Molecular Devices). […] The perfusate containing the compound (II) with a low concentration was added when the amount of current was almost steady, and the amount of current was then recorded while replacing it with a perfusate with a high concentration in the same manner. When the recording was ended, Ba^2+ (3 mM) was added, and the intrinsic leak current was measured. The measured data was analyzed using Clampfit 10.2 (commercially available from Molecular Devices). The IC50 value was calculated using GraphPad Prism version 5.00 (commercially available from GraphPad Software).
# [4] = target: T3, KCNJ3 N83H KACh channel (Homo sapiens, UniProt P48544+P48549, N83H); assay: two-electrode voltage clamp, KACh channel expressed in Xenopus laevis oocytes (N83H mutant); type: cell-based; conditions: for inhibition of the N83H mutant compared with the WT KACh channel: N83H vs WT; for inhibitory effect on the KCNJ3 N83H KACh channel: two-electrode voltage clamp
# T3 construct: expressed in transfected cells; host or cells: Xenopus laevis oocytes (cRNA injection)
# T3 sequence (P48549 1-501 N83H): T1 sequence (P48549 1-501) with N83H
# T3 sequence (P48544 1-419): T1 sequence (P48544 1-419 W101C) with C101W
# Description: as §2
# The coding sequence of human KCNJ3 WT was obtained by amplifying a human KCNJ3 cDNA clone (commercially available from Invitrogen) by PCR, and subcloning it into a pCS2+ vector (commercially available from Addgene). The c.247A>C mutation providingKCNJ3 N83H was introduced by site-directed mutagenesis through PCR. Similarly, the human KCNJ5 coding sequence was obtained by amplifying a human KCNJ5 cDNA clone (commercially available from Invitrogen) by PCR and subcloning it into a pCS2+ vector. The cRNAs of KCNJ3 WT, KCNJ3 N83H and KCNJ5 were synthesized from linearized cDNA using an mMESSAGE mMACHINE kit (commercially available from Life Technologies) vitro transcription. cRNA of KCNJ3 N83H or KCNJ3 WT and cRNA of wild type KCNJ5 were injected into Xenopus laevis oocytes together with cRNA of β and γ subunits of G protein, and incubated in an ND96 solution at 18° C. for 48 to 96 hours.
# For the extracellular fluid, the pH of a test bath solution containing 40 mM potassium chloride, 50 mM sodium chloride, 3 mM magnesium chloride M, 0.15 mM niflumic acid, and 5 mMHEPES was adjusted to 7.4 with potassium hydroxide.
# The whole cell current via the expressed KACh channel was measured by a two-electrode voltage clamp method using a GeneClamp 500 amplifier (commercially available from Molecular Devices). The compound (II) dissolved in DMSO, and a perfusate was prepared so that the final concentration was 0.001, 0.01, 0.03, 0.1, 1, and 10 μM. The perfusate containing the compound (II) with a low concentration was added when the amount of current was almost steady, and the amount of current was then recorded while replacing it with a perfusate with a high concentration in the same manner. When the recording was ended, Ba^2+ (3 mM) was added, and the intrinsic leak current was measured. The measured data was analyzed using Clampfit 10.2 (commercially available from Molecular Devices). The IC50 value was calculated using GraphPad Prism version 5.00 (commercially available from GraphPad Software).
# [5] = tested on: KCNJ3 WT zebrafish; assay: transgenic zebrafish model, heart rate analysis (KCNJ3 WT); type: in vivo, zebrafish (Danio rerio); conditions: 100 nM, after 1 hour
# Method: as §1
# Transgenic zebrafish was prepared by a transposon transfer system using transposon Tol2. Since the cardiac KACh channel was expressed in the sinoatrial node, atrioventricular node, and atrial muscle, a gene construct in which three genes of mCherry were linked with a 2A peptide was prepared so that human KCNJ3 WT or N83H and human KCNJ5, and additionally gene introduction thereof were able to be determined under a fluorescence microscope under the control of the atrial myosin heavy chain (amhc) promoter, which expressed a target gene in zebrafish in an atrial-specific manner (FIG. 3). […] When the adult fish prepared in this manner were crossed with wild type zebrafish, fish whose germline transmission was confirmed by generating fry positive for mCherry in the atrium under a fluorescence microscope were used as an F0 founder. When this F0 founder was crossed with wild type zebrafish hspGFF3A, which expressed GFP in both the ventricle and the atrium (Proceedings of the National Academy of Sciences of the United States of America. 2008; 105:1255-1260.), the heart rate and the heart pulsation rhythm were analyzed using 2 day old F1 transgenic zebrafish fry which expressed GFP in the ventricle and GFP and mCherry in the atrium (FIG. 4). […]
# [6] = target: T2, KCNJ3 WT KACh channel; conditions: literature (Jin W, Lu Z. Biochemistry 1999); cited from earlier work
inhibitory effect on the KCNJ3 WT KACh channel ([3]; two-electrode voltage clamp),"IC50 ([3]; wild type, n=13, read-out: IC50 value, inhibition of whole cell current)","IC50 ([4]; N83H mutant, n=14, p<0.01 vs wild type, read-out: IC50 value, inhibition of whole cell current)",Compound,inhibitory effect on the KCNJ5 WT/W101C KACh channel [1],effect on heart rate and bradyarrhythmia [2],effect on sinus arrest / atrioventricular block caused by the N83H mutation [2],inhibition of the N83H mutant compared with the WT KACh channel [4],inhibitory effect on the KCNJ3 N83H KACh channel [4],effect on heart rate [5],inhibitory action on the KCNJ3 WT KACh channel [6]
exhibited the inhibitory effect,,,"Cc1cc(CO)nc2cc3c(cc12)OC(C)(C)[C@H](O)[C@H]3NCCc1ccccc1 [compound (I), (3R4S)-7-hydroxymethyl-2,2,9-trimethyl-4-(phenethylamino)-3,4-dihydro-2H-pyra no[2,3-g]quinoline-3-ol]",concentration-dependent inhibitory effect,increasing the heart rate and improving bradyarrhythmia,improved the sinus arrest and atrioventricular block,stronger on N83H than WT,exhibited the inhibitory effect,,
,230 ± 60 nM,50 ± 12 nM,"CC1(C)Oc2cc([N+](=O)[O-])c(N)cc2[C@H](NCCc2ccccc2)[C@H]1O [compound (II), (3R,4S)-6-amino-3,4-di hydro-2,2-dimethyl-7-nitro-4-(2-phenethylamino)-2H-1-benzopyran-3-ol]",,increasing the heart rate and improving bradyarrhythmia,,higher affinity for the mutant KACh channel,concentration-dependent inhibitory effect,appropriate increase in the heart rate without causing excess tachycardia,
,,,Tertiapin-Q [reference compound],,,did not improve sinus arrest,,,,inhibitory action
